From US7910622B2, “Modulation of bacterial quorum sensing with synthetic ligands” (Wisconsin Alumni Research Foundation, priority 2007, dated 2011)

What was measured:
Test in all cases: cell-based
LuxR [1] = biological target: T1, LuxR (Aliivibrio fischeri, UniProt P35327); assay type: cell-based, Vibrio fischeri; settings: for IC50: LuxR IC50, determined against 5 μM OHHL; for V. fischeri-LuxR Inhibition [%]: 5 μM synthetic ligand against 5 μM OHHL; for V. fischeri-LuxR Inhibition [%] / inhibition at 5 µM: V. fischeri ES114 (Δ-luxI), normalized to OHHL; for inhibition at 5 µM: read-out: V. fischeri-LuxR Inhibition [%], 5 μM synthetic ligand against 5 μM OHHL
T1 construct: a Δ-luxI derivative of V. fischeri ES114, in which the native lux operon behaves as the bioluminescent reporter; endogenous in cells; host or cells: V. fischeri ES114 (Δ-luxI)
T1 sequence (P35327 whole entry): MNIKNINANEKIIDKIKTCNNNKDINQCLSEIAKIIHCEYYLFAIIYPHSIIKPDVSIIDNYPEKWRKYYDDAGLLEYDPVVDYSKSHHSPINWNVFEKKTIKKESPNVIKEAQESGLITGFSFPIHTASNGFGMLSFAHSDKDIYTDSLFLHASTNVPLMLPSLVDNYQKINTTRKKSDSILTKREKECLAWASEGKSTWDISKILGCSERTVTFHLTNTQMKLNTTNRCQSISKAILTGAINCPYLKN
Experimental: (§1) Luminescence assays. For agonism assays, an appropriate amount of AHL stock solution was added into a 96-well plate. An overnight culture of E. coli or V. fischeri was diluted 1:10 with appropriate media (LB plus 10 μg/mL tetracycline for E. coli; LBS for V. fischeri). A 200-μL portion of the diluted culture was added to each well of the plate. Plates were grown for 4-8 h with shaking (200 rpm; 30° C. for E. coli and RT for V. fischeri). Luminescence was measured using a multilabel plate reader and normalized to cell density. […] All assays were performed in triplicate. Graphpad Prism software was used to calculate IC50 and EC50 values.
(§2) Vibrio fischeri assay procedures. […] An overnight culture of V. fischeri ES114 (WT, Δ-luxI or Δ-luxR) was diluted 1:10 with LBS medium. A-200 μL portion of the diluted culture was added to each well of the plate. Plates were grown at RT with shaking (200 rpm) until the OD600=0.35-0.4 (4-6 h). Luminescence then was measured and normalized to cell density per well. […] All assays were performed in triplicate. IC50 and EC50 values were calculated using GraphPad Prism software using a sigmoidal curve fit.
(§3) V. fischeri reporter gene assay protocols. […] An overnight culture of V. fischeri ES114 (D-luxI) was diluted 1:10 with LBS medium. A 200-μL portion of the diluted culture was added to each well of the multititer plate. Plates were grown at RT with shaking (200 rpm) until the OD600=0.35-0.4 (4-6 h). Luminescence then was measured and normalized to cell density per well.
(§4) Dose response reporter gene assays. […] IC50 and EC50 values were calculated using GraphPad Prism software (v. 4.0) using a sigmoidal curve fit.
(§5) V. fischeri reporter gene assay protocols. […] An overnight culture of V. fischeri ES114 (Δ-luxI) was diluted 1:10 with LBS medium. A200 μL portion of the diluted culture was added to each well of the multititer plate. Plates were incubated at RT until the OD600=0.35-0.4 (4-6 h). Luminescence then was measured and normalized to cell density per well.
as §4

LasR [2] = biological target: T2, LasR (Pseudomonas aeruginosa, UniProt P25084); settings: for E. coli-LasR Activation [%]: 5 μM ligand; for EC50: read-out: LasR EC50
T2 construct: expressed in transfected cells; host or cells: E. coli DH5α (pJN105L pSC11), arabinose-induced
T2 sequence (P25084 whole entry): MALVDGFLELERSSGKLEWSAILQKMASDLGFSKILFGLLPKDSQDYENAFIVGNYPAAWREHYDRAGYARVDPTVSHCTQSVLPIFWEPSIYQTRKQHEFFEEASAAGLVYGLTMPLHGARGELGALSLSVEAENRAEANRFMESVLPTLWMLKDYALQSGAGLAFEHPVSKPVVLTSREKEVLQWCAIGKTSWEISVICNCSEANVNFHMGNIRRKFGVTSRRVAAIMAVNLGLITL
Experimental: (§6) E. coli LasR reporter gene assay protocols. […] An overnight culture of E. coli DH5a (pJN105L pSC11) grown at 37° C. was subculture by diluting 1/10 in fresh LB medium containing 100 μg/mL ampicillin and 15 μg/mL gentamicin and shaking at 37° C. until OD600=0.3. Arabinose (4 mg/mL) was then added to induce the LasR promoter and a 200 μL-portion of this culture was added to each well of the multititer plate containing AHLs. Plates were grown at 37° C. for 2 hours in a rotary shaking incubator (200 rpm; OD600=0.45). The cultures were then assayed for activity following the identical β-galactosidase assay protocols used in the A. tumefaciens reporter gene assays.
as §4
(§7) E. coli LasR reporter gene assay protocols. […] An overnight culture of E. coli DH5α (pJN105L pSC11) was diluted 1:10 with fresh LB medium containing 100 μg/mL ampicillin and 15 μg/mL gentamicin. This sub-culture was incubated at 37° C. until OD600=0.3 (4-6 h). Arabinose (4 mg/mL) was then added to induce the LasR promoter, and a 200 μL portion of this culture was added to each well of the multititer plate containing AHLs. Plates were incubated at 37° C. until OD600=0.45 (4-6 h). The cultures were then assayed for LasR activity following the identical β-galactosidase assay protocols used in the A. tumefaciens reporter gene assays (see above).
as §4

LasR [3] = biological target: T2, LasR; assay type: cell-based; settings: for E. coli-LasR Inhibition [%]: 5 μM synthetic ligand against 7.5 nM OdDHL; for E. coli-LasR Inhibition [%] / inhibition at 5 µM: E. coli DH5α (pJN105L pSC11), normalized to OdDHL; for inhibition at 5 µM: read-out: E. coli-LasR Inhibition [%], 5 μM synthetic ligand against 7.5 nM OdDHL
Experimental: as §6, §4, §7, §4

TraR = biological target: T3, TraR (Agrobacterium tumefaciens, UniProt P33905); settings: for A. tumefaciens-TraR Activation [%]: 10 μM ligand; for A. tumefaciens-TraR Inhibition [%]: 10 μM synthetic ligand against 100 nM OOHL; for activation at 10 µM: read-out: A. tumefaciens-TraR Activation [%]
T3 construct: These strains lack their AHL synthase (I) genes, but retain their native R genes; endogenous in cells; host or cells: A. tumefaciens WCF47 (Δ-traI) with PtraI-lacZ plasmid pCF372
T3 sequence (P33905 whole entry): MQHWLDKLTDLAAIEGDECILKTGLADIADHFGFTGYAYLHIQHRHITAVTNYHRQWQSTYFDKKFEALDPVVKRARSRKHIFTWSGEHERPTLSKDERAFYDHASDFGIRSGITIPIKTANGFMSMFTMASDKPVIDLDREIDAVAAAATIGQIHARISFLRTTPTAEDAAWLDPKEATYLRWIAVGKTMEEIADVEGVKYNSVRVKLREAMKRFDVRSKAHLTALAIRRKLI
Experimental: A. tumefaciens reporter gene assay protocols. […] An overnight culture of A. tumefaciens WCF47 (pCF372) was diluted to an OD600 of 0.1 in fresh AB minimal medium containing 400 μg/mL octopine and 50 μg/mL streptomycin. A 200 μL-portion of the diluted culture was added to each well of the multititer plate containing AHLs. Plates were grown at 28° C. for 18-20 h in a rotary shaking incubator (200 rpm). The cultures were then assayed for β-galactosidase activity following the Miller assay method. Briefly, 200 μL aliquots of bacteria from each of the wells were added to wells of a polystyrene 96-well plate and the OD600 of each well was recorded. Next, 50 μL aliquots from each well were transferred to a solvent resistant 96-well plate containing 200 μL Z buffer, 8 μL CHCl3 and 4 μL 0.1% aq. sodium dodecylsulfate (SDS). This suspension was mixed via repetitive pipetting, after which the CHCl3 was allowed to settle. A 100-μL aliquot from each well was transferred to a fresh polystyrene 96-well plate, and 20 μL of substrate, o-nitrophenyl-β-D-galactopyranoside (ONPG, 4 μg/mL in phosphate buffer), was added at time zero. After the development of appropriate yellow color (ca. 15-35 min), the reaction was terminated by the addition of 50 μL of 1 M Na2CO3. Absorbance at 420 nm and 550 nm was measured for each well using a plate reader, and Miller units were calculated according to standard methods.
as §4
A. tumefaciens reporter gene assay protocols. […] An overnight culture of A. tumefaciens WCF47 (pCF372) was diluted 1:10 with fresh AB minimal medium containing 400 μg/mL octopine and 50 μg/mL streptomycin. A 200 μL portion of the diluted culture was added to each well of the multititer plate containing AHLs. Plates were incubated at 28° C. for 18-24 h. The cultures were then assayed for β-galactosidase activity following the Miller assay method. Briefly, 200 μL aliquots of bacteria from each of the wells were added to wells of a 96-well multititer plate, and the OD600 of each well was recorded. Next, 50 μL aliquots from each well were transferred to a solvent resistant 96-well multititer plate containing 200 μL Z buffer, 8 μL CHCl3 and 4 μL 0.1% aq. SDS. This suspension was mixed via repetitive pipetting, after which the CHCl3 was allowed to settle. A 100 μL aliquot from each well was transferred to a fresh 96-well multititer plate, and 20 μL of substrate, o-nitrophenyl-β-D-galactopyranoside (ONPG, 4 μg/mL in phosphate buffer), was added at time zero. After the development of appropriate yellow color (ca. 20-30 min), the reaction was terminated by the addition of 50 μL of 1 M Na2CO3. Absorbances at 420 nm and 550 nm were measured for each well using a plate reader, and Miller units were calculated according to standard methods.
as §4

LuxR [4] = biological target: T1, LuxR; set-up: species or system Vibrio fischeri; settings: for V. fischeri-LuxR Activation [%]: 200 μM ligand; for V. fischeri-LuxR Activation [%] / activation at 200 µM: V. fischeri ES114 (Δ-luxI), normalized to OHHL; for activation at 200 µM: read-out: V. fischeri-LuxR Activation [%], 200 μM ligand
Experimental: as §1, §2, §3, §4, §5, §4

[5] = E. coli DH5α (pJN105L pSC11), normalized to OdDHL
[6] = A. tumefaciens WCF47 (pCF372), normalized to OOHL

Compound	E. coli-LasR Activation [%] (LasR [2]; [5])	E. coli-LasR Inhibition [%] (LasR [3])	A. tumefaciens-TraR Activation [%] (TraR; [6])	A. tumefaciens-TraR Inhibition [%] (TraR; [6])	V. fischeri-LuxR Activation [%] (LuxR [4])	V. fischeri-LuxR Inhibition [%] (LuxR [1])	further results
CCCCCCCCCC(=O)CC(=O)N[C@H]1CCOC1=O [A8, N-(3-oxo-dodecanoyl)-L-homoserine lactone, reference compound]							IC50 (LuxR [1]): 400 nM
O=C(CCCc1c[nH]c2ccccc12)N[C@@H]1CCOC1=O [A29]	0	13	0	9	2	29%	
O=C(Cc1ccc(Br)cc1)N[C@@H]1CCOC1=O [D-5]						ca. 20%	
O=C(CC(=O)N[C@@H]1CCOC1=O)Cc1ccccc1 [B2]	84	−7	2	50	3	46%	EC50 (LasR [2]): 540 nM
O=C(Cc1ccccc1I)N[C@H]1CCOC1=O [B15]	0	17	0	5	7	63%	
Nc1ccc(CC(=O)N[C@H]2CCOC2=O)cc1 [11v, 4-amino PHL]						lowest inhibitory activities	
O=C(CCCc1ccccc1)N[C@@H]1CCOC1=O [D-3]						ca. 20%	
O=C(Cc1ccc(O)cc1)N[C@H]1CCOC1=O [11w, 4-hydroxy PHL]						lowest inhibitory activities	
CCCC(=O)CC(=O)N[C@H]1CCOC1=O [compound 3]							activation at 5 µM (LasR [2]; read-out: E. coli-LasR Activation [%], 5 μM ligand, E. coli DH5α (pJN105L pSC11), normalized to OdDHL): 1%; inhibition at 5 µM (LasR [3]): 15%; activation at 10 µM (TraR): 1%; inhibition at 10 µM (TraR; read-out: A. tumefaciens-TraR Inhibition [%], 10 μM synthetic ligand against 100 nM OOHL, A. tumefaciens WCF47 (pCF372), normalized to OOHL): 89%; EC50 (LuxR [4]; LuxR EC50, V. fischeri ES114 (Δ-luxI)): 3000 nM; activation at 200 µM (LuxR [4]): 100%
CCCCCC(=O)CC(=O)N[C@H]1CCOC1=O [compound 1, N-(3-oxo-octanoyl)-L-homoserine lactone, reference compound]		50					IC50 (LasR [3]; determined against 7.5 nM OdDHL, read-out: LasR IC50): 110 nM; inhibition at 5 µM (LasR [3]): ≥ 50%; EC50 (TraR; EC50 of autoinducer in A. tumefaciens WCF47 (pCF372), value in method text): 100 nM; EC50 (TraR; TraR EC50): 200 nM; activation at 10 µM (TraR): 100%; activation at 200 µM (LuxR [4]): ~25%; inhibition at 5 µM (LuxR [1]): 63%
O=C(CC(=O)N[C@@H]1CCOC1=O)Cc1ccccc1 [A25]	84	−7	2	50	3		EC50 (LasR [2]): 540 nM
O=C(Cc1ccc(-c2ccccc2)cc1)N[C@H]1CCOC1=O [11q, 4-phenyl PHL]							inhibition at 5 µM (LuxR [1]): ~80%
4-azido PHL [B20]	0	19	0		5		
O=C(Cc1ccc(C(F)(F)F)cc1)N[C@H]1CCOC1=O [11s, 4-trifluoromethyl PHL]							IC50 (LuxR [1]): 600 nM; inhibition at 5 µM (LuxR [1]): ~80%
O=C(CCCc1ccccc1)N[C@@H]1CCOC1=O [A26]	0		0	31	3	41%	
O=C(Cc1ccccc1)N[C@H]1CCOC1=O [11a]						abolished inhibitory activity	
